Laboratory results reported in ChEMBL document CHEMBL4368934, “Chemistry and biology of ophiobolin A and its congeners” (Bioorg Med Chem Lett, 2019).
Converted amounts (≈) assume the structure as drawn.

Experiments:
Plasmodium falciparum = experiment: Antimalarial activity against Plasmodium falciparum K1 by [3H]-hypoxanthine incorporation assay; format: functional, organism-based
[1] = tested on: Mycobacterium tuberculosis; experiment: Antibacterial activity against Mycobacterium tuberculosis H37Ra by microplate alamar blue assay; format: functional, organism-based
[2] = Cytotoxicity against mouse P388/R cells after 72 hrs by MTT assay; format: functional, cell-based; conditions: P388, 72 h
[3] = tested on: Panel NCI-60 (60 carcinoma cell lines); experiment: Cytotoxicity against human NCI60 cells; format: functional
[4] = Acute toxicity in iv dosed mouse; format: organism-based; conditions: in vivo
[5] = Acute toxicity in sc dosed mouse; format: organism-based; conditions: in vivo

C/C(=C\[C@H](O)[C@@H](O)[C@H](C)[C@H]1CC[C@@]2(C)C[C@@H]3[C@H](C)CC(=O)[C@@H]3/C(C=O)=C\C[C@H]12)C(=O)O
IC50 (Plasmodium falciparum): 13 µg/mL (≈ 30.1 µM) | IC50 [1]: 200 µg/mL (≈ 462 µM)

CC(C)=C/C=C/[C@H](C)C1=CC[C@]2(C)C[C@H]3[C@H](C(=O)C[C@@]3(C)O)/C(C=O)=C\C[C@@H]12
IC50 [2]: 270 to 650 nM

CC(C)=C[C@H]1C[C@H](C)[C@]2(CC[C@]3(C)C[C@H]4[C@H](C(=O)C[C@@]4(C)O)/C(C=O)=C\C[C@H]32)O1 [OPHIOBOLIN A]
GI50 [3]: 72 nM | CC50 ([3]; read-out: LC50 (the source's name)): 629 nM | LD50 [4]: 12 mg/kg | LD50 [5]: 238 mg/kg
